Results published in patent US20260256772A1, “BENZOTHIAZOLE COMPOUND AND USE THEREOF” (NANJING REJU THERAPEUTICS, INC., priority 2022, published 2026).

Columns and labels:
senescent cells = experiment: Senescent cell killing, CellTiter-Glo cell viability; type: cell-based, human, mouse; settings: activity of killing senescent cells; cell type not specified
Text: In this test example, human non-small cell lung cancer cell line (A549 cells), human embryonic lung fibroblast cell line (IMR90 cells), human retinal pigment epithelial cells (RPE cells), mouse chondrocytes, and mouse skin fibroblasts were selected. The above cells were induced by etoposide ([…]) to obtain their senescent cells. The effect of the target compounds on the viability of normal and senescent cells above was examined, thus assessing the specific killing effect of the compounds on senescent cells above.
Briefly, senescent and normal cells above were selected and plated separately (96-well plates). […] 2A to 2E.

diabetic retinopathy = experiment: Mouse model of diabetic retinopathy (STZ), retinal Evans blue penetration assay; type: in vivo; settings: intravitreal (IVT), 1 μL of 200 μM at 8 and 9 weeks after STZ, FIG. 4
Description: The efficacy of the compounds of the present disclosure was studied in a mouse model of diabetic retinopathy by multiple administrations of streptozotocin (STZ). C57BL/6J mice at 6 to 7 weeks were weighed and their baseline blood glucose was measured (Sino). STZ (Sigma-Alderich) was injected intraperitoneally into the mice at 55 mg/Kg for five consecutive days. Age-matched controls were injected with buffer only. Blood glucose was measured again one week after the last STZ injection. 1 μL of the test compound (200 μM, a suspension formulated in 0.015% polysorbate 80, 0.2% sodium phosphate, 0.75% sodium chloride, pH 7.2) was injected intravitreally into the STZ-treated diabetic C57BL/6J mice at 8 and 9 weeks after STZ administration. 10 weeks after STZ treatment, the retinal Evans blue penetration assay was performed.

[1] = test system: idiopathic pulmonary fibrosis; experiment: Idiopathic pulmonary fibrosis animal model (bleomycin); type: in vivo, SD rats; settings: intraperitoneal (IP) 5 mg/kg, 3 consecutive weeks, FIG. 6; for pathology scores: H&E and Masson staining; for WBC: alveolar lavage fluid; for HYP: lung tissue
Description: In this test example, the efficacy of the compounds of the present disclosure was tested on idiopathic pulmonary fibrosis in an idiopathic pulmonary fibrosis animal model. Briefly, anesthetized 6-week-old SD rats were fixed on a foam board with medical tape. Firstly, the skin on the surface of the trachea was cut with surgical scissors to fully expose the trachea, and a 100-microlitre micro-syringe containing a certain volume of bleomycin (BLM 5 mg/kg) solution drawn based on the body weight of the rat was inserted into the trachea through the oral cavity to administer by slow bolus injection. After administration of the BLM solution, the foam plate was immediately rotated and shaken to distribute the BLM solution as evenly as possible in the lung tissue. Then the skin on the surface of the trachea was sutured with surgical sutures and about 0.5 to 1.0 mL of penicillin solution was dripped onto the epidermis to prevent infection of the surgical wound. After the 7th day of modelling, the compound solution of the present disclosure was administered via intraperitoneal (IP) injection (5 mg/kg) according to the weight of the rat for 3 consecutive weeks. Rats were euthanized by carbon dioxide on Day 28, the lung tissues were removed, the left alveolar lavage fluid was collected for white blood cell (WBC) counting, the right lung tissue portion was used for hydroxyproline (HYP) assay, and the remaining lung tissues were stained for pathology by H&E staining and Masson staining.

osteoarthritis = experiment: Osteoarthritis animal model; type: in vivo, mice; settings: intra-articular injection, FIG. 7
Description: In this test example, the efficacy of the compounds of the present disclosure was tested on osteoarthritis in an osteoarthritis animal model.
The osteoarthritis animal model was constructed by the following steps. The mice were anesthetized with isoflurane, and fixed. The hair on the right hind limb of the mice was shaved and the skin was disinfected with alcohol, and the skin of the joints was cut. Under an optical microscope, the inside of the right knee joint was incised longitudinally with a blade, without cutting the patellar ligament. The patellar ligament was pulled to one side with constant hemostasis by compression with sterile cotton swabs such that the joint cavity was fully exposed. Saline was added dropwise in time to avoid the drying up of the joint cavity. The excess muscle tissue was gently separated with a blunt forceps to expose the meniscus ligament. The anterior cruciate ligament was found in the depth of the joint cavity and cut with a micro scissor. Then the wound was disinfected with penicillin solution, the muscle was sutured with sterile needle and thread, and the skin tissue was finally sutured. The efficacy of the drug was determined by intra-articular injection administration. At the endpoint of the test, continued pain threshold of the plantar was detected, and the bone joints were stained with safranin fast green.

Alzheimer's disease = Alzheimer's disease APP×PS1 transgenic mouse model; type: in vivo; settings: intraperitoneal injection, 11 consecutive weeks, twice a week, FIG. 8
Description: In this test example, the efficacy of the compounds of the present disclosure was tested on Alzheimer's disease in an animal model of Alzheimer's disease. Briefly, a transgenic mouse model of APP×PS1 (purchased from Cyagen Biosciences) was selected, and the compound of the present disclosure was administered by intraperitoneal injection for 11 consecutive weeks, twice a week. Alterations in amyloid in the cerebral cortex of the mice were observed.

hepatic fibrosis = experiment: Hepatic fibrosis mouse model (CCl4); type: in vivo, C57BL/6N mice; settings: FIG. 9; for serum alanine aminotransferase (ALT) levels / serum aspartate aminotransferase (AST) levels: intraperitoneal (IP) injection twice a week from third week of modelling; for pathology scores: intraperitoneal (IP) injection, liver Masson staining
Description: In this test example, the efficacy of the compounds of the present disclosure was tested on hepatic fibrosis in an animal model of hepatic fibrosis. Briefly, C57BL/6N mice, male, 7 to 8 weeks old, 24 to 28 g of body weight, were used. The mouse model of hepatic fibrosis was induced by intraperitoneal injection of CCl4 solution at a dosage of 1 mL/kg, with a dosing frequency of 2 times/week, and a modelling cycle of 6 weeks. Dosing via intraperitoneal injection was started starting from the third week of modelling twice a week. At the end of the test, serum was collected, and liver tissue was taken for Masson staining index assay.

aging skin = experiment: Aging skin, naturally aging mouse model; type: in vivo, C57bl/6J mice; settings: skin application twice a week for 6 consecutive weeks, FIG. 10
Description: In this test example, aged female C57bl/6J mice (22 months old) were used. The drug was administered by skin application twice a week for 6 consecutive weeks.

hypertrophic scars = experiment: Rabbit ear hypertrophic scar model; type: in vivo, New Zealand white rabbits; settings: 150 μM, 100 μL injected into each lesion once a week, 4 injections, FIG. 12
Description: In this test example, the efficacy of the compounds of the present disclosure was tested on hypertrophic scars in a rabbit ear hypertrophic scar animal model. Briefly, 15 New Zealand white rabbits, male, 3 months old, were used. The New Zealand rabbits were anaesthetized with sodium pentobarbital and six circular full-thickness wounds with a diameter of 10 mm were made on the ventral surface of each ear by removing the epidermis, dermis and perichondrium to expose the cartilage. The rabbits were randomly divided into control, RX001 experimental and RX301 experimental groups. On postoperative day 14, after complete re-epithelialization of the wound surface, the compound (150 μM, 100 μL, dissolved in DMSO solution) or negative control DMSO 100 μL was injected into the center of each lesion from the wound edge once a week for a total of 4 injections. Improvement of scar formation by the drugs was assessed by SEI (Scar Excess Index).

| Structure (SMILES) | IC50 (senescent cells) | vascular permeability, choroidal vascular leakage (diabetic retinopathy) | vascular permeability, retinal vascular leakage (diabetic retinopathy) | pathology scores [1] | WBC [1] | HYP [1] | pathology scores of safranin fast green staining (osteoarthritis) | plantar mechanical pain threshold (osteoarthritis) | Aβ42 pathogenic protein indicators (Alzheimer's disease) | serum alanine aminotransferase (ALT) levels (hepatic fibrosis) | serum aspartate aminotransferase (AST) levels (hepatic fibrosis) | pathology scores (hepatic fibrosis) | epidermal thickness scores of the skins (aging skin) | scar excess index (hypertrophic scars) |
| --- | --- | --- | --- | --- | --- | --- | --- | --- | --- | --- | --- | --- | --- | --- |
| CCN1CCN(C(=O)c2nc(N3CCc4cccc(C(=O)Nc5nc6ccccc6s5)c4C3)ccc2-c2cnn(CC34CC5CC(CC(C5)C3)C4)c2C)CC1 [RX001] | 0.2 to 1 µM | improved | improved | statistically significant improvements | statistically significant improvements | statistically significant improvements | statistically significant improvements | statistically significant improvements | statistically significant improvements | statistically significant improvements | statistically significant improvements | statistically significant improvements | statistically significant improvements | statistically significant improvement |
| Cc1c(-c2ccc(N3CCc4cccc(C(=O)Nc5nc6ccccc6s5)c4C3)nc2C(=O)N2CCC(CCOP(=O)(O)O)CC2)cnn1CC12CC3CC(CC(C3)C1)C2 [RX301] | < 0.2 µM | improved | improved | statistically significant improvements | statistically significant improvements | statistically significant improvements | statistically significant improvements | statistically significant improvements | statistically significant improvements | statistically significant improvements | statistically significant improvements | statistically significant improvements | statistically significant improvements | statistically significant improvement |
